Reference: patent US6369074B1, “Aminomethylene substituted non-aromatic heterocycles and use as substance P antagonists” (Pfizer Inc., priority 1992, dated 2002)
Counter-ions that a name gives are not always drawn.

Row | melting point | Structure (SMILES)
1 | 217 °C (dec.) | COc1ccc(-n2c(C)ccc2C)cc1CN[C@H]1CCCN[C@H]1c1ccccc1 (as salt: hydrochloride) [Example 19, (2S,3S)-[5-(2,5-Dimethylpyrrol-1-yl)-2-methoxybenzyl]-(2-phenylpiperidin-3-yl) amine]
2 | 240 to 244 °C | COc1ccc2c(C)c(C)sc2c1CN[C@H]1CCCN[C@H]1c1ccccc1.Cl.Cl.O (hydrate or solvate)
